Consider 13 compounds from PubChem BioAssay (NCI).

Holding throughout (test): NCI-60 cell line screen, 48 h
The test system of assay [1] is A498 renal.
Assay [2] concerns RXF 393 renal.
In assay [3] the test system is NCI/ADR-RES ovarian.
In assay [4] the test system is TK-10 renal.
In assay [5] the test system is RPMI-8226 leukemia.
Assay [6] deals with SF-268 CNS.
For assay [7], the system named is HL-60(TB) leukemia.
Assay [8] has as its system COLO 205 colon.
In assay [9] the test system is MOLT-4 leukemia.
Assay [10] has as its system IGROV1 ovarian.

SMILES strings stand for the structures.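 Briefly, cells in 96-well plates were exposed to five compound concentrations for 48 h, and endpoints were estimated by linear interpolation. GI50 = concentration required for 50% inhibition of growth. TGI is the concentration that stops growth completely.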 A value given as a limit tells only on which side of the number the result lay.

Consider `CCOP(=O)(OCC)C(Nc1ccc(Cl)cc1)c1ccc(F)cc1` (stereo not drawn), for which the TGI in [1] is 58.7 µM; in [2] it was 67.3 µM; in [3], 87.3 µM; in assay [4], over 100 µM; in assay [5], 67.6 µM; in assay [6], 61.2 µM. Besides, the TGI in assay [7] is 54.1 µM; in [8], 87.1 µM; in assay [9], 61.7 µM.
On to `Cc1ccc2sc3c(NCCCN)nc4ccccc4c3c(=O)c2c1`, for which the GI50 in [1] is 1.87 µM; in assay [2], 1.52 µM; in [3] it was 1.8 µM; in assay [4] it was 1.81 µM; in [10], 1.61 µM; in [5] it was 2.41 µM. Besides, the results for the GI50 in assay [6], in assay [7] and in [8] were 1.74 µM, 2.05 µM and 2.19 µM, respectively. Also, the TGI in assay [1] was determined as 4.64 µM; in assay [2] it was 3.02 µM; in [3], 3.45 µM; in [4], 3.52 µM; in assay [10] it was 3.26 µM; in assay [5], 5.5 µM. The figures for the TGI in assay [6], in assay [7] and in assay [8] were 3.45 µM, 4.09 µM and 5.13 µM, respectively.
With `CCOC(=O)c1sc2nc(SC)nc3c2c1NCN3C`, the TGI in assay [1] is 57.6 µM; in [2], 32.8 µM; in [3] it was over 100 µM; in assay [4], over 100 µM; in assay [10] it was 39.2 µM; in assay [5] it was over 100 µM. Besides, the TGI in assay [6] was 61.5 µM; in [8], over 100 µM.
Regarding `CC1(C)C2CC3C(C)(C2)C31c1cc(Cl)ccc1N` (stereo not drawn), the TGI in assay [1] is 31.8 µM; in assay [2] it was 22.9 µM; in [3], 29.5 µM; in assay [4], 29.1 µM; in assay [10] it was 27.6 µM; in [5] it was 30 µM. Besides, the TGI in assay [6] is 28.3 µM; in assay [8], 33.2 µM; in [9], 22.7 µM.
As for `N=C1C=CC(=C(c2ccc(N)cc2)c2ccc(N)cc2)C=C1`, the TGI in [1] came to 17.3 µM; in assay [2], 23 µM; in [3] it was 49.3 µM; in [4] it was 28.1 µM; in assay [10] it was 31.5 µM; in [5], 18.4 µM. The TGI in assay [6] is 14.9 µM; in assay [7], 36.1 µM; in assay [8], 5.83 µM; in assay [9], 42.1 µM.
With `CC1(C)CC(=O)c2c(N)n[nH]c2C1`, the TGI in assay [1], in assay [2], in assay [3], in assay [10], in assay [5] and in assay [7] was over 100 µM in each case. Also, the TGI in [8] and in [9] was over 100 µM in each case.
For the compound `O=C(O)C(Cc1ccccc1)Cc1ccccc1`, the TGI in assay [1], in assay [2], in [3], in [4], in assay [10] and in assay [5] was over 100 µM each time. The TGI in [6], in assay [7], in [8] and in [9] was over 100 µM each time.
Turning to `Cc1ccc(/C=c2\c(=O)[nH]c3nc4ccccc4c(=O)n23)cc1`, the TGI in assay [2] was 98.7 µM; in assay [3] it was over 100 µM; in assay [4], over 100 µM; in assay [5], over 100 µM; in [6], over 100 µM; in [7], over 100 µM. Also, the values for the TGI in [8] and in assay [9] were 42.2 µM and over 100 µM, respectively.
With `O=C(CSc1nc2ccc(I)cc2c(=O)n1Cc1ccccc1)Nc1ccccc1`, the TGI is 46.4 µM in [1]; 34.1 µM in assay [2]; 93.2 µM in assay [3]; over 100 µM in assay [10]; over 100 µM in assay [5]; 29.2 µM in assay [6]. Further, the TGI in [7], in assay [8] and in assay [9] was over 100 µM in each case.
As for `OCc1ccc2c(c1)CC1(Cc3ccccc3C1)C2`, the TGI was over 100 µM in assay [1]; 36.2 µM in [2]; 59.5 µM in [3]; 61.5 µM in assay [4]; 46.4 µM in assay [5]; 40.9 µM in assay [6]. Further, the TGI is 67.4 µM in assay [7] and 31.2 µM in assay [8].
With `O=S(=O)(O)c1cc(S(=O)(=O)O)c2cc(N=Nc3ccc(N=Nc4ccc(/C=C/c5ccc(N=[N+]([O-])c6ccc(/C=C/c7ccc(N=Nc8ccc(N=Nc9ccc%10cc(S(=O)(=O)O)cc(S(=O)(=O)O)c%10c9)cc8)cc7S(=O)(=O)O)c(S(=O)(=O)O)c6)cc5S(=O)(=O)O)c(S(=O)(=O)O)c4)cc3)ccc2c1`, the TGI in assay [1] was over 100 µM; in assay [2] it was over 78.7 µM; in assay [3] it was over 100 µM; in [10], over 100 µM; in assay [5] it was over 100 µM; in assay [6], over 100 µM. Besides, the TGI in [7], in [8] and in assay [9] was over 100 µM each time.
Consider `O=S(=O)(O)c1ccc(O)c(N=Nc2c(O)ccc3ccccc23)c1`, for which the TGI in assay [1], in assay [2], in assay [3], in [4], in assay [10] and in [5] was over 100 µM in each case. The TGI in [6], in [8] and in assay [9] was over 100 µM each time.
Regarding `NS(=O)(=O)c1nnc(NS(=O)(=O)c2cccc3cccnc23)s1`, the TGI in [1], in [2], in [3], in assay [4], in assay [5] and in assay [6] was over 100 µM throughout. The TGI in assay [8] and in assay [9] was over 100 µM throughout.
